Series [1] concerns the target T1, human full length Hsp90 (Homo sapiens, UniProt P07900).
T1 construct: amino acid residues 1 to 732 of human Hsp90 (GenBank: BC121062.2); made in house; host or cells: E. coli BL21DE3 (pET15b)
The series can be described thus: Determination of the Kd value of FITC-labeled geldanamycin for Hsp90 (fluorescence polarization). Type of series: binding. The conditions noted are these: with or without 50 nM Hsp90. As for the experimental part: Eighty five micro liters (μl) of a binding assay buffer (20 mM HEPES, pH 7.5, 50 mM KCl, 5 mM MgCl2, 20 mM sodium molybdate, 0.01% NP-40, 2 mM DTT, and 0.1 mg/mL BSA) were added to a 96 well black plate placed on ice. DMSO (3 μl) was added to the wells, followed by the addition of either 10 μl human full length HSP90 (50 nM final concentration) diluted in the binding assay buffer or 10 μl of the buffer alone. The plates were incubated at 4° C. on a plate shaker for 24 hours. Two μl of 50× GA-FITC titrate within a final range of 160 nM to 0.3125 nM in DMSO were added to all wells, followed by incubation at ambient temperature for 1 h with agitation. Fluorescence polarization readings were taken at excitation and emission wavelengths of 480 and 500 nm respectively. Measurements were performed in duplicate. Specific binding was calculated by subtracting polarization values in the presence of
Hsp90 from those in the absence of Hsp90. GA-FITC Kd values were calculated using Prism software (GraphPad Software, Inc., San Diego, Calif.).
A 10 point concentration response curve for binding of GM-FITC to Hsp90 was obtained. The concentration of GM-FITC used ranged from 160 nM to 0.3125 nM, which produced a saturable concentration response curve. […] The value of binding maximum (Bmax) was determined to be 188 nM.
(In general: Polarisation of emitted light reports the rotation of a fluorescent probe.)

Series [2] deals with T1, human full length Hsp90. Put plainly: Fluorescence polarization Hsp90 competitive binding assay (GM-FITC displacement). Here is the method:
Hsp90 binding assays was performed generally according to the procedure described in J. Biomol. […] Hsp90 inhibitors were solubilized in DMSO at a stock concentration of 50 mM. […] Eighty five μl of binding assay buffer (20 mM HEPES, pH-7.5, 50 mM KCl, 5 mM MgCl2, 20 mM sodium molybdate, 0.01% NP-40, 2 mM DTT, and 0.1 mg/ml BSA) was added to the wells of a 96 well black plate placed on ice. […] Next, 10 μl either binding assay buffer alone (control) or human full length Hsp90 protein diluted in the binding assay buffer was added to achieve a final concentration of 50 nM. The plates were incubated at 4° C. on a plate shaker for 24 h. Two μl of 50× GM-FITC (9 nM final) in DMSO was added to all wells and the plate was incubated at ambient temperature for 1 h with shaking. Fluorescence polarization readings were taken in duplicate at excitation and emission wavelengths of 480 nm and 500 nm respectively. Specific binding was calculated by subtracting polarization values in the presence of Hsp90 from those in the absence of Hsp90. To calculate percent inhibition the specific binding values obtained for GA-FITC in the presence of compound were compared to values for GA-FITC in the absence of compound (DMSO only).

A short description of series [3]: Rat CNS exposure (plasma and CNS tissue concentration, LC-MS/MS). The format is in vivo. Conditions: 10 mg/kg. Here is the method:
Test subjects (Sprague-Dawley rats) were housed in sterile vivarium with controlled temperature, humidity and 12-hour light-dark cycle (7:00 lights-on and 19:00 lights-off). Following procurement, rats were acclimated to the vivarium facility for 7 days prior to study day-1 with ad libitum access to both diet and water. Bedding was changed twice weekly. […] On study day-1 rats were administered vehicle or Hsp90 inhibitor formulation. Following administrations of test article formulation, blood and CNS tissue was collected at 6.5 h post-dosed by a necropsy procedure. In detail, CNS tissue was isolated from the Vehicle and dose groups, divided into 2 mid-sagittal sections, placed in tarred 1 mL micro-centrifuge tubes, weighed and immediately frozen on dry ice. Blood was isolated by a cardiac puncture procedure from the Vehicle and Hsp90 inhibitor dose groups. From these samples, plasma was isolated in plasma separator tubes containing ethylenediaminetetraacetic acid as the anticoagulant. HSP90 inhibitor concentrations in plasma and CNS tissue were determined using LC-MS/MS based methods following a 60% acetonitrile extraction.

Where [4] appears, read: Table 1, 50 nM Hsp90, 9 nM GM-FITC, read-out: Biochemical Potency IC50.
Setting [5] is: Table II, binding affinities ranked by potency.
Setting [6] is: Table II, binding affinities ranked by potency, read-out: IC50.

Like-named read-outs stand apart in the source and are kept apart here.

One may read the Kd as a measure of binding affinity in units of concentration. Lower therefore signals a tighter complex. Turning to `CO[C@H]1/C=C\C=C(/C)C(=O)NC2=CC(=O)C(NCCCCCCNC(=S)Nc3ccc(-c4c5ccc(=O)cc-5oc5cc(O)ccc45)c(C(=O)O)c3)=C(C[C@@H](C)C[C@H](OC)[C@H](O)[C@@H](C)/C=C(\C)[C@@H]1OC(N)=O)C2=O` [GA-FITC], the “binding maximum (Bmax)” value on human full length Hsp90 [1] is 188 nM. On human full length Hsp90 [1] (160 nM to 0.3125 nM probe), this compound showed a Kd of 3.1 nM.
For orientation: IC50 means the point on the concentration scale where inhibition reaches its midpoint. As a reminder, the Ki is a measure of affinity in units of concentration, obtained from inhibition or displacement. Lower therefore signals higher affinity. As for `COc1c(C)cnc(CN(CCc2ccc3c(c2)OCO3)c2cc(Cl)nc(N)n2)c1C` [SBI-0640607, N4-(2-(Benzo[d][1,3]dioxol-5-yl)ethyl)-6-chloro-N4-((4-methoxy-3,5-dimethylpyridin-2-yl)methyl)pyrimidine-2,4-diamine], the half-inhibitory concentration (IC50) at human full length Hsp90 [2] (setting [4]) and at human full length Hsp90 [2] (setting [6]) was 368 nM throughout. The inhibition constant Ki on human full length Hsp90 [2] (setting [5]) turned out to be 92 nM.
With `COc1c(C)cnc(CN(CCc2ccc(Cl)cc2)c2cc(Cl)nc(N)n2)c1C` [SBI-0640608, 6-Chloro-N4-(4-chlorophenethyl)-N4-((4-methoxy-3,5-dimethylpyridin-2-yl)methyl)pyrimidine-2,4-diamine], the IC50 at human full length Hsp90 [2] (setting [4]) and on human full length Hsp90 [2] (setting [6]) was 311 nM throughout. Besides, at human full length Hsp90 [2] (setting [5]), the inhibitory constant (Ki) stood at 78 nM.
For the compound `CCCCCCN(Cc1ncc(C)c(OC)c1C)c1cc(Cl)nc(N)n1` [SBI-0640609, 6-Chloro-N4-hexyl-N4-((4-methoxy-3,5-dimethylpyridin-2-yl)methyl)pyrimidine-2,4-diamine], the IC50 on human full length Hsp90 [2] (setting [4]) and on human full length Hsp90 [2] (setting [6]) was 391 nM in each case. For the same compound, at human full length Hsp90 [2] (setting [5]), the Ki stood at 98 nM.
Take `Cc1cnc(CN(CCc2ccc(Cl)cc2)c2cc(Cl)nc(N)n2)c(C)c1Cl` [SBI-0640610, 6-Chloro-N4-((4-chloro-3,5-dimethylpyridin-2-yl)methyl)-N4-(4-chlorophenethyl)pyrimidine-2,4-diamine]: the IC50 at human full length Hsp90 [2] (setting [4]) and on human full length Hsp90 [2] (setting [6]) was 194 nM throughout. The compound also came in with an inhibition constant Ki at human full length Hsp90 [2] (setting [5]) of 49 nM.
Regarding `COc1c(C)cnc(CN(CCN2CCOCC2)c2cc(Cl)nc(N)n2)c1C` [SBI-0640611, 6-Chloro-N4-((4-methoxy-3,5-dimethylpyridin-2-yl)methyl)-N4-(2-morpholinoethyl)pyrimidine-2,4-diamine], the half-maximal inhibitory concentration (IC50) on human full length Hsp90 [2] (setting [4]) and on human full length Hsp90 [2] (setting [6]) was 1690 nM in each case. At human full length Hsp90 [2] (setting [5]), this compound displayed an inhibition constant Ki of 423 nM.
`CCN(Cc1ncc(C)c(OC)c1C)c1cc(Cl)nc(N)n1` [SBI-0640612, 6-Chloro-N4-ethyl-N4-((4-methoxy-3,5-dimethylpyridin-2-yl)methyl)pyrimidine-2,4-diamine]: the IC50 at human full length Hsp90 [2] (setting [4]) and at human full length Hsp90 [2] (setting [6]) was 1140 nM throughout. The Ki on human full length Hsp90 [2] (setting [5]) worked out at 285 nM.
`COc1c(C)cnc(CN(CCc2cccc(Br)c2)c2cc(Cl)nc(N)n2)c1C` [SBI-0640613, N4-(3-Bromophenethyl)-6-chloro-N4-((4-methoxy-3,5-dimethylpyridin-2-yl)methyl)pyrimidine-2,4-diamine]: the IC50 at human full length Hsp90 [2] (setting [4]) and at human full length Hsp90 [2] (setting [6]) was 97 nM throughout. Also, the Ki at human full length Hsp90 [2] (setting [5]) was 24 nM.
In the case of `COc1c(C)cnc(CN(C(=O)C(C)C)c2cc(Cl)nc(N)n2)c1C` [SBI-0640644], the concentration for half-maximal inhibition (IC50) at human full length Hsp90 [2] (setting [4]) and at human full length Hsp90 [2] (setting [6]) was 13900 nM throughout. On human full length Hsp90 [2] (setting [5]), this compound registered an inhibition constant (Ki) of 3480 nM.
Turning to `CCCC(=O)N(Cc1ncc(C)c(OC)c1C)c1cc(Cl)nc(N)n1` [SBI-0640645], the IC50 on human full length Hsp90 [2] (setting [4]) and on human full length Hsp90 [2] (setting [6]) was 30000 nM throughout. At human full length Hsp90 [2] (setting [5]), this compound returned an inhibition constant (Ki) of 7500 nM.
For `Cc1cn(-c2cc(F)c(C(N)=O)c(N[C@H]3CCOC3)c2)c2c1C(=O)CC(C)(C)C2` [SNX-0723, reference compound], in series [3], the “partitioning CNS versus plasma” value is “selectively partitions into the CNS compartment compared to plasma”.
